Values joined by “and” are separate entries in the source; they are usually repeats but may differ in a detail not shown here. Equal values may be shown once.
What was measured:
[1] = test system: antibiotic-sensitive Klebsiella pneumoniae (K. pneumoniae); test: Bacteria culture and staining: growth and FACS labeling of sensitive K. pneumoniae; type: cell-based; settings: 2.5 µM dye
Description: (§1) Escherichia coli (E. coli) NEB5α (New England Biolabs) and antibiotic-resistant and -sensitive Klebsiella pneumoniae (K. pneumoniae) were cultured in Luria-Bertani (LB) solid medium (LB-Agar) overnight at 37°C. The source of the K. pneumoniae strands is of no relevance to the invention. The invention may be applied to all types of microorganisms (bacteria, viri, fungi etc.) or other cells, either contained within a sample or isolated from a sample. For staining, growth curve analysis and replating experiments bacteria were suspended in LB liquid medium at an OD600 nm of 1.0 and 800 µL were transferred into a culture tube containing 7.2 mL of LB liquid medium supplemented with DMSO or candidate dyes (2.5 µM) final concentration). Density of bacterial cultures was measured using an Ultrospec 10 Cell Density Meter with 600 nm LED source (Amersham Biosciences). […]
(§2) Bacteria and macrophages were washed with PBS prior to flow cytometry and analysed using a Guava easyCyte flow cytometer (Millipore). FCS3.0 files were analysed using Flowing Software (http://flowingsoftware.btk.fi/). Cells were first gated in the forward- / side-scatter plot to exclude debries, followed by quadrant gating in plots using the fluorescence channels as shown above. […] Propidium iodide signal was recorded in the yellow channel.

[2] = test system: dsDNACT; test: Fluorescence quantum yield with dsDNACT; type: physicochemical, calf; settings: with dsDNACT (30 eq.); 10 mM Tris pH 7.6 and 50 mM KCI, 25°C; reference dye Alexa Fluor 647
Description: Fluorescence intensity values for the quantum yields were determined on an ISS PC1 spectrofluorometer with an ISS 11650 lamp connected to an ISS Simpson model 109 and an ISS 80011 photomulitplier connected to a MGW Lauda K2R D and an Amherst Scientific Corp. 7600F for cooling. A VWR Refrigerated Circ 1160S was connected for the cooling of the cuvette chamber. It was measured in a 1400 µL fluorescence cuvette of HellmaAnalytics (104F-QS) at 25°C using the following settings: increment: 2.0 nm; integration time: 1.0 s; excitation slit width: 0.25 mm; emission slit width: 0.5 mm; excitation wavelength 590 nm. The emission spectra were recorded from 610 to 750 nm. From all spectra the corresponding background signal was substracted. Absorbance values were measured on a Jasco V-650 UV-Vis Spectrophotometer equipped with a Jasco PAC-743 temperature controlled cell holder and a Julabo F250 cooling system. […] The values for the reference compounds were measured in duplicates, the ones for 6-TramTO-3 with and without dsDNACT in triplicates. The quantum yields of 6-TramTO-3 with (30 eq.) and without dsDNACT were determined in 10 mM Tris pH 7.6 and 50 mM KCI. […]
(§3) Table 3: Determined slopes and corresponding quantum yields for the two reference compounds Alexa Flour® 647 and Atto 655 and for 6-TramTO-3 with and without dsDNACT.

[3] = test system: primary human macrophages; test: Uptake of 6-TramTO-3-labeled bacteria by macrophages (co-culture, FACS); type: cell-based; settings: multiplicity of infection of 20
Description: For primary human macrophage cultures buffy coats from blood donations were loaded onto Lymphoprep™ gradient medium (Fresenius Kabi) followed by centrifugation. The peripheral blood mononuclear cell band was isolated from the gradient and monocytes were enriched using CD14 MACS beads (Miltenyi) according to the manufacturer's instructions. To differentiate monocytes into macrophages cells were cultured in 6-well plates (800.000 cells/mL) in 2 mL X-Vivo 15 medium (Lonza) supplemented with 5 % fetal bovine serum (Biochrom) and 15 ng/mL recombinant human GM-CSF (Preprotech). On day 7 macrophages were considered terminally differentiated and treated with stained bacteria. To this end bacteria stained as described above were sampled at an OD600 nm = 2.0 and washed five times with phosphate buffered saline (PBS). After the last wash bacteria were brought to an OD600 nm of 2.0 and 16 µL, equivalent to 16.000.000 bacteria were added to each well to achieve a multiplicity of infection of 20. Culture plates were then centrifuged for 10 min at 250 G and 37°C to establish physical contact between macrophages and bacteria. Subsequently, culture plates were transferred back into a 37°C incubator with CO2 atmosphere for the remainder of the stimulation period.
Bacteria and macrophages were washed with PBS prior to flow cytometry and analysed using a Guava easyCyte flow cytometer (Millipore). FCS3.0 files were analysed using Flowing Software (http://flowingsoftware.btk.fi/). Cells were first gated in the forward- / side-scatter plot to exclude debries, followed by quadrant gating in plots using the fluorescence channels as shown above. For discrimination of live/dead cell discrimination cells in PBS were supplemented with 0.4 µL/mL propidium-iodide (5 mg/ml solution) followed by 5 min incubation on ice. Propidium iodide signal was recorded in the yellow channel.

[4] = Fluorescence quantum yield, dye alone; type: physicochemical; settings: dye alone, without dsDNACT; 10 mM Tris pH 7.6 and 50 mM KCI, 25°C; reference dye Alexa Fluor 647
Description: Fluorescence intensity values for the quantum yields were determined on an ISS PC1 spectrofluorometer with an ISS 11650 lamp connected to an ISS Simpson model 109 and an ISS 80011 photomulitplier connected to a MGW Lauda K2R D and an Amherst Scientific Corp. 7600F for cooling. A VWR Refrigerated Circ 1160S was connected for the cooling of the cuvette chamber. It was measured in a 1400 µL fluorescence cuvette of HellmaAnalytics (104F-QS) at 25°C using the following settings: increment: 2.0 nm; integration time: 1.0 s; excitation slit width: 0.25 mm; emission slit width: 0.5 mm; excitation wavelength 590 nm. The emission spectra were recorded from 610 to 750 nm. From all spectra the corresponding background signal was substracted. Absorbance values were measured on a Jasco V-650 UV-Vis Spectrophotometer equipped with a Jasco PAC-743 temperature controlled cell holder and a Julabo F250 cooling system. UV-Vis titration measurements were performed in a 1400 µL quarz cuvette with a pathlength of 1 cm at 25°C using the following settings: increment: 1.0 nm; bandwidth: 1.0 nm; scanning speed: 1000 nm/min; scanning mode: continuous. From all values, the corresponding background signal was subtracted. The values for the reference compounds were measured in duplicates, the ones for 6-TramTO-3 with and without dsDNACT in triplicates. The quantum yields of 6-TramTO-3 with (30 eq.) and without dsDNACT were determined in 10 mM Tris pH 7.6 and 50 mM KCI. All measurement were following the procedure of Horiba and using the equation E1: ΦX = ΦST ((GradX)/(GradST)) ((((ηX))^2)/(((ηST))^2)) [formula] where Φ = fluorescence quantum yield, η = refractive index of the used solvent, Grad = gradient from the plot of integrated fluorescence intensity vs. absorbance and the subscripts ST and X denote standard and tested sample. […]
as §3

[5] = test system: antibiotic-resistant Klebsiella pneumoniae (K. pneumoniae); type: cell-based; settings: 2.5 µM dye
Description: as §1, §2

## CC[n+]1ccc(/C=C/C=C2\Sc3ccccc3N2CCCCCCn2cc(CN)nn2)c2ccccc21.[I-] [6-TramTO-3, 4-((1E,3Z)-3-(3-(6-(4-(aminomethyl)-1H-1,2,3-triazol-1-yl)hexyl)benzo[d]thiazol-2(3H)-ylidene)prop-1-en-1-yl)-1-ethylquinolin-1-ium iodide]
[1]
  bacterial growth in presence of dye: grew normally
[1]; OD600 = 2.0
  fluorescent labeling of live bacteria (FACS): successfully fluorescently labeled
[2]
  quantum yield (ΦF): 0.27
[3]; macrophages exposed to 6-TramTO-3-labeled E. coli
  red-shift of the macrophages (bacterial uptake): ~ 26%
[3]; macrophages exposed to 6-TramTO-3-labeled antibiotic sensitive Klebsiella strain
  macrophages that took up bacteria (red-shifted): ~ 0.2%
[3]; macrophages exposed to 6-TramTO-3-labeled antibiotic-resistant Klebsiella strain
  macrophages that took up bacteria (red-shifted): ~ 4%
[4]
  quantum yield (ΦF): 0.005 and 0.0052
[5]
  bacterial growth in presence of dye: grew normally
[5]; OD600 = 2.0
  fluorescent labeling of live bacteria (FACS): successfully fluorescently labeled

From patent EP3572468B1, “CYANINE DYES AND THEIR USAGE FOR IN VIVO STAINING OF MICROORGANISMS” (PHILIPPS-UNIVERSITÄT MARBURG, priority 2018, dated 2019)
